The values that follow come from US12583855B2, “RET selective inhibitor, preparation method therefor and use thereof” (SHOUYAO HOLDINGS (BEIJING) CO., LTD., priority 2019, dated 2026).

One assay concerns the target T1, RET^WT (Homo sapiens, UniProt P07949).
T1 construct: GST-RET^WT (658-1114 aa, final concentration of 0.5 nM)
T1 sequence (P07949 658-1114): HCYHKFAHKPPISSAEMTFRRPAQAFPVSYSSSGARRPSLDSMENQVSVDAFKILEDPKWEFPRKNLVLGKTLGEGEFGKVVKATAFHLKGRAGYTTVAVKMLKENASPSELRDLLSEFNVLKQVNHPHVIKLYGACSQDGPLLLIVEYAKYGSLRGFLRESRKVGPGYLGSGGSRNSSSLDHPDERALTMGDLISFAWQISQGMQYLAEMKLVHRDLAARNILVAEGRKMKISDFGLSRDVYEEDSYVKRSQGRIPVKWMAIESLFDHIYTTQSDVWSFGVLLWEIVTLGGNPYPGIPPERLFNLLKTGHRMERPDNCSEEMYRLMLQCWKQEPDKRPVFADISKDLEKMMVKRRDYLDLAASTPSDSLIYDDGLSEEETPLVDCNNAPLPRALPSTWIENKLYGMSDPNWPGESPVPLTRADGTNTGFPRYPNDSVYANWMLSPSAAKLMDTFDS
As to the kind of experiment: In vitro enzymatic activity assay on RET^WT (HTRF). Type of assay: biochemical. As to conditions: GST-RET^WT (658-1114 aa) 0.5 nM, ATP 25 μM. A digest of the protocol: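 Reaction run 2 h at 23 °C in HEPES pH 7.5 buffer with Na3VO4, MgCl2, DTT, Tween 20 and BSA; compounds tested at 7 concentrations (5-fold serial dilution in DMSO from 0.2 mM stock). HTRF detection with TK antibody and streptavidin-XL665; IC50 from curve fitting.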
A general note: In TR-FRET formats the signal depends on donor and acceptor labels being close together.

Another assay has as its target T2, RET^V804M (Homo sapiens, UniProt P07949, V804M).
T2 construct: GST-RET^V804M (658-1114 aa, final concentration of 0.02 nM)
T2 sequence (P07949 658-1114 V804M): T1 sequence (P07949 658-1114) with V147M
The assay is described as follows: In vitro enzymatic activity assay on RET^V804M (HTRF). Type of assay: biochemical. To be noted: GST-RET^V804M (658-1114 aa) 0.02 nM, ATP 1.5 μM.

The target in the next assay is VEGFR2 (Homo sapiens, UniProt P35968). The assay is described as follows: In vitro enzymatic activity assay on VEGFR2 (HTRF). Type of assay: biochemical. To be noted: GST-VEGFR2 0.1 nM, ATP 2.5 μM. A digest of the protocol: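 GST-VEGFR2 (0.1 nM final) with 2.5 μM ATP and 1 μM TK peptide substrate in HEPES pH 7.5 buffer with Mg²⁺/Mn²⁺, 1.5 h at 23 °C. HTRF read-out (665/620 nm ratio) after adding TK antibody and streptavidin-XL665. IC50 from 7-point, 5-fold dilution series.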

Another assay deals with TT cells. As to the kind of experiment: TT cell proliferation activity (Cell-Titer Glo). Type of assay: cell-based. As to conditions: TT human thyroid carcinoma cells, 120 h. Here is the method: 4. Determination of TT Cell Proliferation Activity of Compounds
TT cells, a human thyroid carcinoma cell line, were cultured in Ham's F-12K medium supplemented with 15% fetal bovine serum (FBS, purchased from Biological Industries, BI) and 1% penicillin/streptomycin double antibody (P/S, purchased from Life Technology) under conditions of 37° C. and 5% CO2. TT cells were plated in a 96-well plate (#3917 purchased from Corning) at a concentration of 5000 cells/195 μL/well the day before compound was detected. The compounds were diluted 3-fold with 100% DMSO starting from 10 mM (10 concentrations in total) after 24 h, and 2 μL of each concentration was diluted in 48 μL of Ham's F-12K medium. 5 μL of each diluted compound was added to the plated Cell suspension, the compound and cells were co-incubated in a cell incubator for 120 h (5 days), after the medium was aspirated. 25 μL of Cell-Titer Glo (G7570, purchased from Promega) reagent was added and re-incubated for 5-10 min. Fluorescence value was then read on Envision and the data were calculated using GraphPad Prism software to obtain IC50 values for inhibition of cell proliferation by the compounds.

Substitutions are numbered along the chain they refer to.

Chain of VEGFR2 (P35968 20-1356): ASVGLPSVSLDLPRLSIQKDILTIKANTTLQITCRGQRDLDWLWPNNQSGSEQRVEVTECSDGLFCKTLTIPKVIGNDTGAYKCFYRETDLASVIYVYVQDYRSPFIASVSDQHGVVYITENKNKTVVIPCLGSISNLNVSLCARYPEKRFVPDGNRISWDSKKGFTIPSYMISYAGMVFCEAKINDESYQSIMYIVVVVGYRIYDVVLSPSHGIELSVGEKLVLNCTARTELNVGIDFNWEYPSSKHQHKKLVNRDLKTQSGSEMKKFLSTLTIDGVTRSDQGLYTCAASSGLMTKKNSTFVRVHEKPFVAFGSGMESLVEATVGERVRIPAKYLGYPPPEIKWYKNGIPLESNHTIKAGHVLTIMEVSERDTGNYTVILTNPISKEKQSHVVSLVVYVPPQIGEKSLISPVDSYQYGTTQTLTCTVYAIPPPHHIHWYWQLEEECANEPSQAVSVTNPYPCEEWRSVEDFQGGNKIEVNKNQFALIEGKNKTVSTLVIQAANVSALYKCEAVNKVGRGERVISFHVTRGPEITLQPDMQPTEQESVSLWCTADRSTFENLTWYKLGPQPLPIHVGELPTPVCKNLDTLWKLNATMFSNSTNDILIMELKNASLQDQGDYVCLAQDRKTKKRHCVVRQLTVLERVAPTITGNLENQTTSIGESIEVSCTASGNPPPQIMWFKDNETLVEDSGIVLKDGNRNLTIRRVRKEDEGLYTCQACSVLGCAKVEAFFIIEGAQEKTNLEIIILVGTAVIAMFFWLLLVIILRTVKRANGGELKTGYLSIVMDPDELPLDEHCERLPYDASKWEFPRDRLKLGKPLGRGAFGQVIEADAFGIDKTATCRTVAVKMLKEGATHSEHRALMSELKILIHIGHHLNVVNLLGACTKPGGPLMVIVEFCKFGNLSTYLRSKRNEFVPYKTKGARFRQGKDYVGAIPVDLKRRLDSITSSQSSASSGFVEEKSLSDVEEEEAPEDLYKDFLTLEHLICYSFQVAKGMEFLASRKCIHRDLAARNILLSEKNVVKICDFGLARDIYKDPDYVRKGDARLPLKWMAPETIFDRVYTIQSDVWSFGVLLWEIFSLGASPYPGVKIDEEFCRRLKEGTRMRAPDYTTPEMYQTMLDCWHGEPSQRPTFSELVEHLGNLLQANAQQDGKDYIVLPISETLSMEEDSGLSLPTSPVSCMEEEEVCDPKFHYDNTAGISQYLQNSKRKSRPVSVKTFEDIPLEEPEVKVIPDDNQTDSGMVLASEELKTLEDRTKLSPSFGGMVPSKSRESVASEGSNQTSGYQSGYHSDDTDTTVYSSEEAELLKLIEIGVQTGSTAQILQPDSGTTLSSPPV

By IC50 is commonly meant the midpoint of a concentration-inhibition curve. Read a high IC50 as a need for much substance. `CC1=C(C(=O)N2CCN(c3ccc(-c4cc(-c5cnn(C)c5)cn5ncc(C#N)c45)cn3)CC2)CCC1` [Example 6, 6-(1-methyl-1Hpyrazol-4-yl)-4-(6-(4-(2-methylcyclopent-1-ene-1-carbonyl)piperazin-1-yl)pyridin-3-yl)pyrazolo[1,5-a]pyridine-3-carbonitrile]: the IC50 against RET^WT worked out at 0.332 nM; on RET^V804M it was 1.25 nM; against VEGFR2, 8.91 nM; in the assay on TT cells it was 13.8 nM.

As for `CS(=O)(=O)c1cccc(CN2C3CC2CN(c2ccc(-c4cc(N5CC(F)(F)C5)cn5ncc(C#N)c45)cn2)C3)c1` [Example 64, 6-(3,3-difluoroazetidin-1-yl)-4-(6-(6-(3-(methylsulfonyl)benzyl)-3,6-diazabicyclo[3.1.1]heptan-3-yl)pyridin-3-yl)pyrazolo[1,5-a]pyridine-3-carbonitrile], the IC50 came out at 0.493 nM against RET^WT, 1.71 nM against RET^V804M, 15.5 nM at VEGFR2 and 42.2 nM with TT cells.

As for `CS(=O)(=O)c1cccc(CN2CCN(c3ccc(-c4cc(-c5cnn(C(F)F)c5)cn5ncc(C#N)c45)cn3)CC2)c1` [Example 47, 6-(1-difluoromethyl-1Hpyrazol-4 yl)-4-(6-(4-(3-(methylsulfonyl)benzyl)piperazin-1-yl)pyridin-3-yl)pyrazolo[1,5-a]pyridine-3-carbonitrile], the IC50 against RET^WT came to 0.343 nM; against RET^V804M, 2.48 nM; at VEGFR2 it was 16.9 nM; in the assay with TT cells, 53.1 nM.

Regarding `CS(=O)(=O)c1ccc(CN2C3CC2CN(c2ccc(-c4cc(-c5cnn(C(F)F)c5)cn5ncc(C#N)c45)cn2)C3)cn1` [Example 77, 6-(1-(difluoromethyl)-1Hpyrazol-4-yl)-4-(6-(6-((6-(methylsulfonyl)pyridin-3-yl)methyl)-3,6-diazabicyclo[3.1.1]heptan-3-yl)pyridin-3-yl)pyrazolo[1,5-a]pyridine-3-carbonitrile], the IC50 against RET^WT is 0.468 nM; on RET^V804M, 0.791 nM; at VEGFR2, 7.56 nM; with TT cells, 23.1 nM.

On to `Cn1cc(-c2cc(-c3ccc(N4CC5CC(C4)N5Cc4ccccc4S(C)(=O)=O)nc3)c3c(C#N)cnn3c2)cn1` [Example 43, 6-(1-methyl-1Hpyrazol-4-yl)-4-(6-(6-(2-(methylsulfonyl)benzyl)-3,6-diazabicyclo[3.1.1]heptan-3-yl)pyridin-3-yl)pyrazolo[1,5a]pyridine-3-carbonitrile], for which the concentration for half-maximal inhibition (IC50) against RET^WT was 0.132 nM; against RET^V804M, 0.507 nM; against VEGFR2, 13.4 nM; in the assay with TT cells it was 16.4 nM.

Take `CS(=O)(=O)c1cccc(CN2C3CC2CN(c2ccc(-c4cc(-c5cnn(C(F)F)c5)cn5ncc(C#N)c45)cn2)C3)c1` [Example 55, 6-(1-difluoromethyl-1Hpyrazol-4-yl)-4-(6-(6-(3-(methylsulfonyl)benzyl)-3,6-diazabicyclo[3.1.1]heptan-3-yl)pyridin-3-yl)pyrazolo[1,5-a]pyridine-3-carbonitrile]: the half-inhibitory concentration (IC50) worked out at 0.109 nM at RET^WT, 0.976 nM against RET^V804M, 19.6 nM against VEGFR2 and 15.4 nM with TT cells.

In the case of `CS(=O)(=O)c1ccccc1CN1C2CC1CN(c1ccc(-c3cc(-c4cnn(C(F)F)c4)cn4ncc(C#N)c34)cn1)C2` [Example 56, 6-(1-difluoromethyl-1Hpyrazol-4-yl)-4-(6-(6-(2-(methylsulfonyl)benzyl)-3,6-diazabicyclo[3.1.1]heptan-3-yl)pyridin-3-yl)pyrazolo[1,5-a]pyridine-3-carbonitrile], the IC50 at RET^WT is 0.08 nM; against RET^V804M, 1.78 nM; against VEGFR2, 59 nM; with TT cells, 39.9 nM.

Take `CS(=O)(=O)c1ccc(CN2C3CC2CN(c2ccc(-c4cc(-c5cn[nH]c5)cn5ncc(C#N)c45)cn2)C3)cc1` [Example 53, 6-(1Hpyrazol-4-yl)-4-(6-(6-(4-(methylsulfonyl)benzyl)-3,6-diazabicyclo 13.1.11 heptan-3-yl)pyridin-3-yl)pyrazolo[1,5-a]pyridine-3-carbonitrile]: the IC50 was 0.072 nM against RET^WT, 0.807 nM against RET^V804M, 2.46 nM on VEGFR2 and 14.6 nM in the assay with TT cells.

Take `CS(=O)(=O)c1ccc(CN2C3CC2CN(c2ccc(-c4cc(-c5cnn(C(F)F)c5)cn5ncc(C#N)c45)cn2)C3)nc1` [Example 78, 6-(1-(difluoromethyl)-1Hpyrazol-4-yl)-4-(6-(6-((5-(methylsulfonyl)pyridin-2-yl)methyl)-3,6-diazabicyclo[3.1.1]heptan-3-yl)pyridine-3-yl)pyrazolo[1,5-a]pyridine-3-carbonitrile]: the IC50 at RET^WT worked out at 0.387 nM; against RET^V804M, 1.04 nM; at VEGFR2 it was 10.4 nM; in the assay on TT cells it was 28.2 nM.

For the compound `Cn1cc(-c2cc(-c3ccc(N4CC5CC(C4)N5Cc4ccc(S(C)(=O)=O)nc4)nc3)c3c(C#N)cnn3c2)cn1` [Example 76, 6-(1-(methyl)-1Hpyrazol-4-yl)-4-(6-(6-((6-(methylsulfonyl)pyridin-3-yl)methyl)-3,6-diazabicyclo[3.1.1]heptan-3-yl)pyridin-3-yl)pyrazolo[1,5-a]pyridine-3-carbonitrile], the IC50 against RET^WT is 0.296 nM; against RET^V804M, 0.479 nM; on VEGFR2, 2.81 nM; in the assay on TT cells it was 16.6 nM.

On to `COc1ccc(CN2CCN(c3ccc(-c4cc(N5CC(C#N)C5)cn5ncc(C#N)c45)cn3)CC2)cn1` [Example 32, 6-(3-cyanoazetidin-1-yl)-4-(6-(4-((6-methoxypyridin-3-yl)methyl)piperazin-1-yl)pyridin-3-yl)pyrazolo[1,5-a]pyridine-3-carbonitrile], for which the IC50 at RET^WT was found to be 0.8 nM; at RET^V804M, 3.19 nM; on VEGFR2, 29.1 nM; in the assay with TT cells, 48.7 nM.

For the compound `Cn1cc(-c2cc(-c3cnc(N4CC5CC(C4)N5Cc4ccc(S(C)(=O)=O)cc4)cn3)c3c(C#N)cnn3c2)cn1` [Example 41, 6-(1-methyl-1Hpyrazol-4-yl)-4-(5-(6-(4-(methylsulfonyl)benzyl)-3,6-diazabicyclo[3.1.1]heptan-3-yl)pyrazin-2-yl)pyrazolo[1,5-a]pyridine-3-carbonitrile], the IC50 against RET^WT amounted to 0.352 nM; at RET^V804M, 1.04 nM; against VEGFR2, 17.3 nM; in the assay on TT cells it was 18.2 nM.
